The values below come from patent US11939320B2, “Modulators of the integrated stress pathway” (Calico Life Sciences LLC, priority 2017, dated 2024).

In general, EC50 refers to the concentration needed to bring the measured effect to its halfway point.

This experiment relates to HEK293T cells carrying the ATF4 luciferase reporter. As to the kind of experiment: ATF4-Luc assay (in vitro model of VWMD). The format is cell-based. The following applies: Homo sapiens, HEK-293T; HEK293T cells with ATF4 5'-UTR firefly luciferase reporter; 1 μg/mL tunicamycin; 7 hours; One Glo luminescence. Here is the method: In order to test exemplary compounds of the invention in a cellular context, a stable VWMD cell line was first constructed. The ATF4 reporter was prepared by fusing the human full-length ATF4 5′-UTR (NCBI Accession No. BC022088.2) in front of the firefly luciferase (FLuc) coding sequence lacking the initiator methionine as described in Sidrauski et al (eLife 2013). The construct was used to produce recombinant retroviruses using standard methods and the resulting viral supernatant was used to transduce HEK293T cells, which were then subsequently selected with puromycin to generate a stable cell line.
HEK293T cells carrying the ATF4 luciferase reporter were plated on polylysine coated 384-well plates (Greiner Bio-one) at 30,000 cells per well. Cells were treated the next day with 1 μg/mL tunicamycin and 200 nM of a compound of Formula (I) for 7 hours. Luminescence was measured using One Glo (Promega) as specified by the manufacturer. Cells were maintained in DMEM with L-glutamine supplemented with 10% heat-inactivated FBS (Gibco) and Antibiotic-Antimycotic solution (Gibco).
Table 2 below summarizes the EC50 data obtained using the ATF4-Luc assay for exemplary compounds of the invention.
In the case of `O=C(N[C@@H]1CC[C@@H](C(=O)NCc2ccc(C(F)(F)F)cn2)OC1)C1CNc2cc(Cl)ccc2O1` (mixture of isomers) [Compound 165, 6-chloro-N-[(3R,6S)-6-({[5-(trifluoromethyl)pyridin-2-yl]methyl}carbamoyl)oxan-3-yl]-3,4-dihydro-2H-1,4-benzoxazine-2-carboxamide], the EC50 is 50 to 250 nM. `O=C(NCc1ccc(C(F)(F)F)cn1)[C@@H]1CC[C@@H](NC(=O)[C@@H]2CNc3cc(Cl)ccc3O2)CO1` (single isomer, unassigned) [Compound 161]: the EC50 lay within 250 to 500 nM. As to `O=C(COc1ccc(Cl)c(F)c1)N[C@H]1CC[C@@H](C(=O)NCc2ccc(C(F)(F)F)cn2)OC1` (single isomer, unassigned) [Compound 162], the EC50 is greater than 2000 nM.

Consider `O=C(COc1ccc(Cl)c(F)c1)N[C@@H]1CC[C@H](C(=O)NCc2ccc(C(F)(F)F)cn2)OC1` (single isomer, unassigned) [Compound 163], for which the EC50 was greater than 2000 nM. With `O=C(NCc1ccc(C(F)(F)F)cn1)[C@@H]1CC[C@@H](NC(=O)[C@H]2CNc3cc(Cl)ccc3O2)CO1` (single isomer, unassigned) [Compound 164] the figure was 50 to 250 nM.

For the molecule `O=C(COc1ccc(Cl)c(Cl)c1)N[C@H]1CC[C@H](C(=O)NCc2ccc(C(F)(F)F)nc2)CC1` [Compound 100, (1r,4r)-4-[2-(3,4-dichlorophenoxy)acetamido]-N-{[6-(trifluoromethyl)pyridin-3-yl]methyl}cyclohexane-1-carboxamide], the EC50 fell in the range of 10 to 50 nM.

On to `Cc1ccc(CNC(=O)[C@H]2CC[C@H](NC(=O)COc3ccc(Cl)c(Cl)c3)CC2)nc1` [Compound 101, (1r,4r)-4-[2-(3,4-dichlorophenoxy)acetamido]-N-[(5-methylpyridin-2-yl)methyl]cyclohexane-1-carboxamide], for which the EC50 is greater than 2000 nM. Take `O=C(COc1ccc(Cl)c(Cl)c1)N[C@H]1CC[C@H](C(=O)Nc2ccc(OC(F)F)nc2)CC1` [Compound 102, (1r,4r)-4-[2-(3,4-dichlorophenoxy)acetamido]-N-[6-(difluoromethoxy)pyridin-3-yl]cyclohexane-1-carboxamide]: the EC50 was less than 10 nM. As to `O=C(COc1ccc(Cl)c(Cl)c1)N[C@H]1CC[C@H](C(=O)Nc2ccc(OCC(F)(F)F)nc2)CC1` [Compound 103, (1r,4r)-4-[2-(3,4-dichlorophenoxy)acetamido]-N-[6-(2,2,2-trifluoroethoxy)pyridin-3-yl]cyclohexane-1-carboxamide], the EC50 was greater than 2000 nM.

For `O=C(COc1ccc(Cl)c(Cl)c1)N[C@H]1CC[C@H](C(=O)NCc2ccc(OC(F)F)cc2)CC1` [Compound 104, (1r,4r)-4-[2-(3,4-dichlorophenoxy)acetamido]-N-{[4-(difluoromethoxy)phenyl]methyl}cyclohexane-1-carboxamide], the EC50 lay in the range of 50 to 250 nM. In the case of `COc1ccc(CNC(=O)[C@H]2CC[C@H](NC(=O)COc3ccc(Cl)c(Cl)c3)CC2)cn1` [Compound 105, (1r,4r)-4-[2-(3,4-dichlorophenoxy)acetamido]-N-[(6-methoxypyridin-3-yl)methyl]cyclohexane-1-carboxamide], the EC50 is greater than 2000 nM. As for `CN(Cc1cccnc1)C(=O)[C@H]1CC[C@H](NC(=O)COc2ccc(Cl)c(Cl)c2)CC1` [Compound 106, (1r,4r)-4-[2-(3,4-dichlorophenoxy)acetamido]-N-methyl-N-[(pyridin-3-yl)methyl]cyclohexane-1-carboxamide], the EC50 is greater than 2000 nM.

Consider `O=C(COc1ccc(Cl)c(F)c1)N[C@H]1CC[C@H](C(=O)NCc2ccc(OC(F)F)cn2)CC1` [Compound 107, (1r,4r)-4-[2-(4-chloro-3-fluorophenoxy)acetamido]-N-{[5-(difluoromethoxy)pyridin-2-yl]methyl}cyclohexane-1-carboxamide], for which the EC50 was 10 to 50 nM. In the case of `Cc1cncc(CNC(=O)[C@H]2CC[C@H](NC(=O)COc3ccc(Cl)c(F)c3)CC2)c1` [Compound 108, (1r,4r)-4-[2-(4-chloro-3-fluorophenoxy)acetamido]-N-[(5-methylpyridin-3-yl)methyl]cyclohexane-1-carboxamide], the EC50 is greater than 2000 nM. In the case of `O=C(COc1ccc(Cl)c(F)c1)N[C@H]1CC[C@H](C(=O)Nc2ccc(OC(F)F)nc2)CC1` [Compound 109, (1r,4r)-4-[2-(4-chloro-3-fluorophenoxy)acetamido]-N-[6-(difluoromethoxy)pyridin-3-yl]cyclohexane-1-carboxamide], the EC50 is less than 10 nM. On to `O=C(COc1ccc(Cl)c(F)c1)N[C@H]1CC[C@H](C(=O)Nc2ccc(OC(F)(F)F)cn2)CC1` [Compound 110, (1r,4r)-4-[2-(4-chloro-3-fluorophenoxy)acetamido]-N-[5-(trifluoromethoxy)pyridin-2-yl]cyclohexane-1-carboxamide], for which the EC50 is 10 to 50 nM. With `O=C(COc1ccc(Cl)c(F)c1)N[C@H]1CC[C@H](C(=O)Nc2ccc(Cl)c(F)c2)CC1` [Compound 111, (1r,4r)-4-[2-(4-chloro-3-fluorophenoxy)acetamido]-N-(4-chloro-3-fluorophenyl)cyclohexane-1-carboxamide], the EC50 lay in the range of 10 to 50 nM. `O=C(COc1ccc(Cl)c(F)c1)N[C@H]1CC[C@H](C(=O)NCc2ccc(Cl)c(F)c2)CC1` [Compound 112, (1r,4r)-4-[2-(4-chloro-3-fluorophenoxy)acetamido]-N-[(4-chloro-3-fluorophenyl)methyl]cyclohexane-1-carboxamide]: the EC50 is less than 10 nM.

Consider `O=C(COc1ccc(Cl)c(F)c1)N[C@H]1CC[C@H](C(=O)N2CCC[C@@H]2c2cc(F)ccc2F)CC1` [Compound 113, 2-(4-chloro-3-fluorophenoxy)-N-{(1R,4r)-4-[(2R)-2-(2,5-difluorophenyl)pyrrolidine-1-carbonyl]cyclohexyl}acetamide], for which the EC50 is greater than 2000 nM. Next, `O=C(COc1ccc(Cl)c(F)c1)N[C@H]1CC[C@H](C(=O)N2CCC[C@H]2c2cc(F)ccc2F)CC1` [Compound 114, 2-(4-chloro-3-fluorophenoxy)-N-{(1S,4r)-4-[(2S)-2-(2,5-difluorophenyl)pyrrolidine-1-carbonyl]cyclohexyl}acetamide]: greater than 2000 nM. Next, `O=C(COc1ccc(Cl)c(F)c1)N[C@H]1CC[C@H](C(=O)Nc2ccc(OCC(F)(F)F)nc2)CC1` [Compound 115, (1r,4r)-4-[2-(4-chloro-3-fluorophenoxy)acetamido]-N-[6-(2,2,2-trifluoroethoxy)pyridin-3-yl]cyclohexane-1-carboxamide]: 500 to 2000 nM; `O=C(COc1ccc(Cl)c(F)c1)N[C@H]1CC[C@H](C(=O)NCc2ccc(OC(F)F)nc2)CC1` [Compound 116, (1r,4r)-4-[2-(4-chloro-3-fluorophenoxy)acetamido]-N-{[6-(difluoromethoxy)pyridin-3-yl]methyl}cyclohexane-1-carboxamide]: 50 to 250 nM; `O=C(COc1ccc(Cl)c(F)c1)N[C@H]1CC[C@H](C(=O)NCc2ncco2)CC1` [Compound 117, (1r,4r)-4-[2-(4-chloro-3-fluorophenoxy)acetamido]-N-[(1,3-oxazol-2-yl)methyl]cyclohexane-1-carboxamide]: greater than 2000 nM. For the molecule `O=C(COc1ccc(Cl)c(F)c1)N[C@H]1CC[C@H](C(=O)NCc2cnco2)CC1` [Compound 118, (1r,4r)-4-[2-(4-chloro-3-fluorophenoxy)acetamido]-N-[(1,3-oxazol-5-yl)methyl]cyclohexane-1-carboxamide], the EC50 was greater than 2000 nM. Next, `O=C(COc1ccc(Cl)c(F)c1)N[C@H]1CC[C@H](C(=O)NCc2ccc(C(F)(F)F)cn2)CC1` [Compound 119, (1r,4r)-4-[2-(4-chloro-3-fluorophenoxy)acetamido]-N-{[5-(trifluoromethyl)pyridin-2-yl]methyl}cyclohexane-1-carboxamide]: less than 10 nM; `O=C(COc1ccc(Cl)c(Cl)c1)N[C@H]1CC[C@H](C(=O)NCc2ccc(OC(F)F)cn2)CC1` [Compound 120, (1r,4r)-4-[2-(3,4-dichlorophenoxy)acetamido]-N-{[5-(difluoromethoxy)pyridin-2-yl]methyl}cyclohexane-1-carboxamide]: 10 to 50 nM; `O=C(COc1ccc(Cl)c(F)c1)N[C@H]1C[C@H](C(=O)NCc2ccc(Cl)cn2)C1` [Compound 121, (1r,3r)-3-[2-(4-chloro-3-fluorophenoxy)acetamido]-N-[(5-chloropyridin-2-yl)methyl]cyclobutane-1-carboxamide]: 250 to 500 nM. For the molecule `O=C(COc1ccc(Cl)c(F)c1)N[C@H]1C[C@H](C(=O)NCc2ccc(C(F)(F)F)cn2)C1` [Compound 122, (1r,3r)-3-[2-(4-chloro-3-fluorophenoxy)acetamido]-N-{[5-(trifluoromethyl)pyridin-2-yl]methyl}cyclobutane-1-carboxamide], the EC50 lay in the range of 500 to 2000 nM. Next, `O=C(COc1ccc(Cl)c(F)c1)N[C@H]1C[C@H](C(=O)N2CC(c3ccc(Cl)cc3)C2)C1` [Compound 123, 2-(4-chloro-3-fluorophenoxy)-N-{(1r,3r)-3-[3-(4-chlorophenyl)azetidine-1-carbonyl]cyclobutyl}acetamide]: 250 to 500 nM. With `O=C(COc1ccc(Cl)c(F)c1)N[C@H]1CC[C@H](C(=O)N2CC3(CN(c4ccc(Cl)c(F)c4)C3)C2)CC1` [Compound 124, 2-(4-chloro-3-fluorophenoxy)-N-{(1r,4r)-4-[6-(4-chloro-3-fluorophenyl)-2,6-diazaspiro[3.3]heptane-2-carbonyl]cyclohexyl}acetamide], the EC50 was greater than 2000 nM.
